pIC50: −log10 of the molar value.
biological target: T1, HIV-1-protease (Human immunodeficiency virus type 1 group M subtype B, UniProt P04585); assay: Inhibition of HIV-1-protease with icosapeptide substrate […] (HPLC); assay type: biochemical; details: not given
T1 construct: made in house
Description: The inhibitory action of the compounds of formula I on the proteolytic activity of HIV-1-protease can be shown, for example, according to known procedures (see A. D. Richards et al., J. Biol. Chem. 265(14), 7733-7736 (1990)). In that method the inhibition of the action of HIV-1-protease (preparation: see S. Billich et al., J. Biol. Chem. 263(34), 17905-17908 (1990)) is measured in the presence of the icosapeptide […] (a synthetic substrate of HIV-1-protease, prepared by peptide synthesis in accordance with known procedures (see J. Schneider et al., Cell 54, 363-368 (1988)), which contains as substrate analogue one of the cleavage sites of the gag-precursor protein (natural substrate of HIV-1-protease). That substrate and its cleavage products are analysed by high performance liquid chromatography (HPLC).
The test compound is dissolved in dimethyl sulfoxide. The enzymatic test is carried out by adding suitable dilutions of the inhibitor in 20 mM β-morpholinoethanesulfonic acid (MES) buffer pH 6.0 to the test mixture. That mixture consists of the above-mentioned icosapeptide (122 µM) in 20 mM MES-buffer pH 6.0. 100 µl are used per test batch. The reaction is started by the addition of […] of HIV-1-protease solution and is stopped after one hour's incubation at 37°C by the addition of 10 µl of 0.3M HClO4. After centrifugation of the sample at 10 000 x g for 5 minutes, 20 µl of the resulting supernatant are applied to a 125 x 4.6 mm Nucleosil® C18-5m-HPLC column (reversed-phase material supplied by Macherey & Nagel, Düren, FRG, based on silica gel that has been charged with C18alkyl chains). The uncleaved icosapeptide and its cleavage products are eluted from the column by means of the following gradient: 100 % eluant 1 → 50 % eluant 1 + 50 % eluant 2 (eluant 1: 10 % acetonitrile, 90 % H2O, 0.1 % trifluoroacetic acid (TFA); eluant 2: 75 % acetonitrile, 25 % H2O, 0.08 % TFA) for 15 minutes, throughflow rate 1 ml/min. The quantification of the eluted peptide fragments is carried out by measuring the peak height of the cleavage product at 215 nm.
Using the test system described above with the icosapeptide […], the IC50 values given below are obtained for the following Examples: […]

In order of falling pIC50:
1. COC(=O)N[C@H](C(=O)N[C@@H](Cc1ccccc1)[C@@H](O)CN(Cc1ccc(-c2ccccn2)cc1)NC(=O)[C@@H](NC(=O)OC)C(C)(C)C)C(C)C [Example 49, 1-[4-(Pyridin-2-yl)-phenyl]-4(S)-hydroxy-2-N-(N-methoxy-carbonyl-(L)-tert-leucyl)amino-5(S)-N-(N-methoxycarbonyl-(L)-valyl)amino-6-phenyl-2-azahexane]  7.70
2. CC[C@H](C)[C@H](NC(=O)OC)C(=O)N[C@@H](Cc1ccccc1)[C@@H](O)CN(Cc1ccc(-c2ccccn2)cc1)NC(=O)[C@@H](NC(=O)OC)C(C)C [Example 50, 1-[4-(Pyridin-2-yl)-phenyl]-4(S)-hydroxy-2-N-(N-methoxy-carbonyl-(L)-valyl)amino-5(S)-N-(N-methoxycarbonyl-(L)-iso-leucyl)amino-6-phenyl-2-azahexane]  7.55
3. CC[C@H](C)[C@H](NC(=O)OC)C(=O)NN(Cc1ccc(-c2ccccn2)cc1)C[C@H](O)[C@H](Cc1ccccc1)NC(=O)[C@@H](NC(=O)OC)C(C)C [Example 51, 1-[4-(Pyridin-2-yl)-phenyl]-4(S)-hydroxy-2-N-(N-methoxy-carbonyl-(L)-iso-leucyl)amino-5(S)-N-(N-methoxycarbonyl-(L)-valyl)amino-6-phenyl-2-azahexane]  7.47

same assay, conditions: icosapeptide […] 122 µM, 20 mM MES pH 6.0, one hour at 37°C; read-out: IC50

In order of rising pIC50:
1. CC[C@H](C)[C@H](NC(=O)OC)C(=O)N[C@@H](Cc1ccccc1)[C@@H](O)CN(Cc1ccc(-c2nnn(C(C)(C)c3ccccc3)n2)cc1)NC(=O)[C@@H](NC(=O)OC)C(C)(C)C [Example 31, 1-{4-[2-(1-Methyl-1-phenyl-ethyl)-2H-tetrazol-5-yl]-phenyl}-4(S)-hydroxy-2-N-(N-methoxycarbonyl-(L)-tert-leucyl)amino-5(S)-N-(N-methoxycarbonyl-(L)-iso-leucyl)amino-6-phenyl-2-azahexane]  6.77
2. CCOC(=O)N[C@H](C(=O)N[C@@H](Cc1ccccc1)[C@@H](O)CN(Cc1ccc(-c2ccccn2)cc1)NC(=O)[C@@H](NC(=O)OCC)C(C)C)C(C)C [Example 38, 1-[4-(Pyridin-2-yl)-phenyl]-4(S)-hydroxy-5(S)-2,5-bis[N-(N-ethoxycarbonyl-(L)-valyl)amino]-6-phenyl-2-azahexane]  7.07
3. CC[C@H](C)[C@H](NC(=O)OC)C(=O)NN(Cc1ccc(-c2nnn(C(C)(C)c3ccccc3)n2)cc1)C[C@H](O)[C@H](Cc1ccccc1)NC(=O)[C@@H](NC(=O)OC)C(C)(C)C [Example 28, 1-{4-[2-(1-Methyl-1-phenyl-ethyl)-2H-tetrazol-5-yl]-phenyl}-4(S)-hydroxy-2-N-(N-methoxycarbonyl-(L)-iso-leucyl)amino-5(S)-N-(N-methoxycarbonyl-(L)-tert-leucyl)amino-6-phenyl-2-azahexane]  7.08
4. COC(=O)N[C@H](C(=O)N[C@@H](Cc1ccccc1)[C@@H](O)CN(Cc1ccc(-c2nnn(C(C)(C)C)n2)cc1)NC(=O)[C@@H](NC(=O)OC)C(C)(C)C)C(C)(C)C [Example 34, 1-[4-(2-tert-Butyl-2H-tetrazol-5-yl)-phenyl]-4(S)-hydroxy-5(S)-2,5-bis[N-(N-methoxycarbonyl-(L)-tert-leucyl)amino]-6-phenyl-2-azahexane]  7.14
5. COC(=O)N[C@H](C(=O)N[C@@H](Cc1ccccc1)[C@@H](O)CN(Cc1ccc(-c2nnn(C(C)(C)C)n2)cc1)NC(=O)[C@@H](NC(=O)OC)C(C)(C)C)C(C)C [Example 35, 1-[4-(2-tert-Butyl-2H-tetrazol-5-yl)-phenyl]-4(S)-hydroxy-2-N-(N-methoxycarbonyl-(L)-tert-leucyl)amino-5(S)-N-(N-methoxycarbonyl-(L)-valyl)amino-6-phenyl-2-azahexane]  7.24
6. CC[C@H](C)[C@H](NC(=O)OC)C(=O)NN(Cc1ccc(-c2nnn(C)n2)cc1)C[C@H](O)[C@H](Cc1ccccc1)NC(=O)[C@@H](NC(=O)OC)C(C)(C)C [Example 30, 1-[4-(2-Methyl-2H-tetrazol-5-yl)-phenyl]-4(S)-hydroxy-2-N-(N-methoxycarbonyl-(L)-iso-leucyl)amino-5(S)-N-(N-methoxycarbonyl-(L)-tert-leucyl)amino-6-phenyl-2-azahexane]  7.27
7. CC[C@H](C)[C@H](NC(=O)OC)C(=O)N[C@@H](Cc1ccccc1)[C@@H](O)CN(Cc1ccc(-c2ccccn2)cc1)NC(=O)[C@@H](NC(=O)OC)[C@@H](C)CC [Example 47, [4-(Pyridin-2-yl)-phenyl]-4(S)-hydroxy-5(S)-2,5-bis[N-(N-methoxycarbonyl-(L)-iso-leucyl)amino]-6-phenyl-2-azahexane]  7.40
8. CC[C@H](C)[C@H](NC(=O)OC)C(=O)N[C@@H](Cc1ccccc1)[C@@H](O)CN(Cc1ccc(-c2cnccn2)cc1)NC(=O)[C@@H](NC(=O)OC)[C@@H](C)CC [Example 43, 1-[4-(Pyrazin-2-yl)-phenyl]-4(S)-hydroxy-5(S)-2,5-bis[N-(N-methoxycarbonyl-(L)-iso-leucyl)amino]-6-phenyl-2-azahexane]  7.43
9. CCOC(=O)N[C@H](C(=O)NN(Cc1ccc(-c2ccccn2)cc1)C[C@H](O)[C@H](Cc1ccccc1)NC(=O)[C@@H](NC(=O)OC)C(C)C)C(C)C [Example 52, 1-[4-(Pyridin-2-yl)-phenyl]-4(S)-hydroxy-2-N-(N-ethoxy-carbonyl-(L)-valyl)-amino-5(S)-N-(N-methoxycarbonyl-(L)-valyl)amino-6-phenyl-2-azahexane]  7.47
10. CC[C@H](C)[C@H](NC(=O)OC)C(=O)NN(Cc1ccc(-c2cnccn2)cc1)C[C@H](O)[C@H](Cc1ccccc1)NC(=O)[C@@H](NC(=O)OC)C(C)C [Example 41, 1-[4-(Pyrazin-2-yl)-phenyl]-4(S)-hydroxy-2-[N-(N-methoxycarbonyl-(L)-iso-leucyl)amino]-5(S)-[N-(N-methoxycarbonyl-(L)-valyl)amino]-6-phenyl-2-azahexane]  7.49
11. COC(=O)N[C@H](C(=O)NN(Cc1ccc(-c2ccccn2)cc1)C[C@H](O)[C@H](Cc1ccccc1)NC(=O)[C@@H](NC(=O)OC)C(C)(C)C)C(C)C [Example 48, 1-[4-(Pyridin-2-yl)-phenyl]-4(S)-hydroxy-2-N-(N-methoxy-carbonyl-(L)-valyl)amino-5(S)-N-(N-methoxycarbonyl-(L)-tert-leucyl)amino-6-phenyl-2-azahexane]  7.51
12. COC(=O)N[C@H](C(=O)N[C@@H](Cc1ccccc1)[C@@H](O)CN(Cc1ccc(-c2ccccn2)cc1)NC(=O)[C@@H](NC(=O)OC)C(C)C)C(C)C [Example 37, 1-[4-(Pyridin-2-yl)-phenyl]-4(S)-hydroxy-5(S)-2,5-bis[N-(N-methoxycarbonyl-(L)-valyl)amino]-6-phenyl-2-azahexane]  7.54
13. COC(=O)N[C@H](C(=O)N[C@@H](Cc1ccccc1)[C@@H](O)CN(Cc1ccc(-c2cnccn2)cc1)NC(=O)[C@@H](NC(=O)OC)C(C)C)C(C)C [Example 40, 1-[4-(Pyrazin-2-yl)-phenyl]-4(S)-hydroxy-5(S)-2,5-bis[N-(N-methoxycarbonyl-(L)-valyl)amino]-6-phenyl-2-azahexane]  7.68
14. COC(=O)N[C@H](C(=O)N[C@@H](Cc1ccccc1)[C@@H](O)CN(Cc1ccc(-c2cnccn2)cc1)NC(=O)[C@@H](NC(=O)OC)C(C)(C)C)C(C)C [Example 42, 1-[4-(Pyrazin-2-yl)-phenyl]-4(S)-hydroxy-2-[N-(N-methoxycarbonyl-(L)-tert-leucyl)amino]-5(S)-[N-(N-methoxycarbonyl-(L)-valyl)amino]-6-phenyl-2-azahexane]  7.82
15. CC[C@H](C)[C@H](NC(=O)OC)C(=O)NN(Cc1ccc(-c2nnn[nH]2)cc1)C[C@H](O)[C@H](Cc1ccccc1)NC(=O)[C@@H](NC(=O)OC)C(C)(C)C [Example 29, 1-[4-(Tetrazol-5-yl)-phenyl]-4(S)-hydroxy-2-N-(N-methoxycarbonyl-(L)-iso-leucyl)amino-5(S)-N-(N-methoxycarbonyl-(L)-tert-leucyl)amino-6-phenyl-2-azahexane]  7.85
16. COC(=O)N[C@H](C(=O)N[C@@H](Cc1ccccc1)[C@@H](O)CN(Cc1ccc(-c2cccnc2)cc1)NC(=O)[C@@H](NC(=O)OC)C(C)C)C(C)C [Example 39, 1-[4-(Pyridin-3-yl)-phenyl]-4(S)-hydroxy-5(S)-2,5-bis[N-(N-methoxycarbonyl-(L)-valyl)amino]-6-phenyl-2-azahexane]  7.92
17. COC(=O)N[C@H](C(=O)N[C@@H](Cc1ccccc1)[C@@H](O)CN(Cc1ccc(-c2cccs2)cc1)NC(=O)[C@@H](NC(=O)OC)C(C)C)C(C)C [Example 45, 1-[4-(Thiophen-2-yl)-phenyl]-4(S)-hydroxy-5(S)-2,5-bis[N-(N-methoxycarbonyl-(L)-valyl)amino]-6-phenyl-2-azahexane]  7.92

From patent EP0900210B1, “ANTIVIRALLY ACTIVE HETEROCYCLIC AZAHEXANE DERIVATIVES” (Novartis AG, priority 1996, dated 1997)
